The source of these data is patent US7932262B2 (Novartis AG, priority 2006, dated 2011).

One test has as its system A2780 cells. Put plainly: Cell Proliferation Assay (Cell Titer Glo), A2780. In kind it is cell-based. As to conditions: Homo sapiens, 72 h; A2780 cells, 3 days incubation; read-out: CPEC50 A2780. In a few lines: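 Following a 3-day compound exposure (37° C., 5% CO2) of A2780 or PC3MM cells plated at 1000 per well, viability was measured by Cell Titer Glo luminescence in fresh medium, read 10 min after reagent addition.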

For test [1], the system named is pAkt308 (phosphorylation of Akt at T308) in PC-3 cells. Put plainly: pAkt T308 ECL Assay in PC-3 cells. In kind it is cell-based. As to conditions: Homo sapiens, 6 h, six hours with compound, read-out: PAKT308 PC3 IC50. How it is done: VI. The pAkt^T308 ECL Assay Protocol
On Day 1, PC-3 cells were seeded at 15,000 cells/well in 100 μL/well ([…]) growth media into black-walled, clear bottom, poly-L-lysine coated plates. The cells were incubated overnight in a 37° C., 5% CO2 incubator.
On Day 2, a MSD ECL plate was blocked for two hours with 150 μL per well of 3% MSD blocker A.
Test compounds were diluted to 500× in DMSO and then were subjected to further serial dilution using a BioMek 2000 instrument. DMSO diluted compounds were then diluted into growth media and then added to the cell plates.
The cell plates incubated with compounds for six hours in a 37° C., 5% CO2 incubator after which the growth medium was removed and 55 μl of MSD lysis buffer was added to cell plates on ice. The plates were lysed on ice for five minutes followed by 15 minutes of vigorous shaking on a plate shaker at 4° C. The blocked MSD assay plates were washed twice with 1×MSD wash buffer followed by the addition of cell lysate as follows: 30 μl of cell lysate was added to the pAkt308 plates and 13 μl of lysate+12 μl lysis buffer was added to the tAkt plates. The plates were then sealed and shaken at 4° C. overnight.
On Day 3, the MSD plates were washed four times with 1×MSD wash buffer then, 25 μl/well of MSD SULFO-TAG antibodies diluted to 10 nM final concentration in 1% blocker. A buffer was added to the antibody diluent which was added to assay plates. The plates were then sealed and incubated at RT for 1.5 hour. The plates were then washed twice with 1×MSD wash buffer followed by the addition of 150 μl/well of 1.5×MSD read buffer. The plates were read immediately after the addition of read buffer using a Trilux instrument. […]

The next test has as its target T1, PDK1 kinase (Homo sapiens, UniProt O15530).
T1 sequence (O15530 1-556): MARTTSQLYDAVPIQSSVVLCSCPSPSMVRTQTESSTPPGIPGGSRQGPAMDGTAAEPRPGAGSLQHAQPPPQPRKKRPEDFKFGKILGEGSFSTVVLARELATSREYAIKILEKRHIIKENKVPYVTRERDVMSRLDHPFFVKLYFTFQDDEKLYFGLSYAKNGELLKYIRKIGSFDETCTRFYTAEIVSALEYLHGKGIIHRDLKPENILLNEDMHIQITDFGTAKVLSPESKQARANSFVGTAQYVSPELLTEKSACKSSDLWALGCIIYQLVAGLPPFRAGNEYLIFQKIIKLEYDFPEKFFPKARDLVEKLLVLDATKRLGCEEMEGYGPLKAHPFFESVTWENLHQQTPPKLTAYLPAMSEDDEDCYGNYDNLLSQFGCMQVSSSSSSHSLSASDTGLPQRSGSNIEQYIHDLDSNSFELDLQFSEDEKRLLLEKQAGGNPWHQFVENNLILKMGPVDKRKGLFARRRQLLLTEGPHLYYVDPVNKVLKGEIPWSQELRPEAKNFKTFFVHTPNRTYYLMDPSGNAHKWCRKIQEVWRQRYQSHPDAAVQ
Put plainly: PDK1 Kinase Alpha Screen Assay. In kind it is biochemical. The following applies: read-out: PDK1 IC50. In a few lines:
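Detection used AlphaScreen: streptavidin donor and protein A acceptor beads (25 μg/ml each) bridged by a phospho-(Ser/Thr) PKA substrate antibody binding phosphorylated peptide. Reaction: biotin-PDK1-4 peptide (50 nM), ATP (10 uM), PDK1 in pH 7.5 Tris/MgCl2/DTT buffer, 3-18 hours, EDTA-stopped.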

The subject of the next test is PC-3 cells. Put plainly: Cell Proliferation Assay (Cell Titer Glo), PC-3 cell line. The following applies: Homo sapiens, PC-3, 72 h, PC-3 cells, 3 days incubation; read-out: CP EC50 PC3. Type of test: cell-based. In a few lines:
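Cell Titer Glo luminescence, read after fresh medium replaced the dosing medium, gave viability of PC-3 cells plated at 1000 cells/well. Compounds, 1:3 serially diluted in DMSO at 500× and then in medium, were added after 3-5 h adhesion and incubated 3 days at 37° C.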

Take `NS(=O)(=O)c1ccc(Nc2ncc3cc(Br)cc(OC4CCNCC4)c3n2)cc1` [Compound 1, 4-[6-Bromo-8-(piperidin-4-yloxy)-quinazolin-2-ylamino]-benzenesulfonamide]: the EC50 in the test with A2780 cells and with PC-3 cells was under 5 µM each time. For the same compound, the IC50 in test [1] is 5 to 10 µM; at PDK1 kinase it was under 5 µM.
As to `NS(=O)(=O)c1ccc(Nc2ncc3cc(Br)cc(OC4CN5CCC4CC5)c3n2)cc1` (centres unmarked) [Compound 2, 4-[8-(1-Aza-bicyclo[2.2.2]oct-3-yloxy)-6-bromo-quinazolin-2-yl-amino]-benzenesulfonamide], the EC50 with A2780 cells and in the test on PC-3 cells was under 5 µM throughout. In addition, the 50% inhibitory concentration (IC50) (in test [1]; at PDK1 kinase) was under 5 µM each time.
As to `O=S(=O)(c1ccc(Nc2ncc3cccc(OC4CCNCC4)c3n2)cc1)N1CCOCC1` [Compound 3, [4-(Morpholine-4-sulfonyl)-phenyl]-[8-(piperidin-4-yloxy)-quinazolin-2-yl]-amine], the EC50 with A2780 cells and with PC-3 cells was under 5 µM throughout. The half-inhibitory concentration (IC50) (in test [1]; at PDK1 kinase) was under 5 µM in each case.
Consider `CC(C)N1CCC(Oc2cccc3cnc(Nc4ccc(S(=O)(=O)N5CCOCC5)cc4)nc23)CC1` [Compound 4, [8-(1-Isopropyl-piperidin-4-yloxy)-quinazolin-2-yl]-[4-(morpholine-4-sulfonyl)-phenyl]-amine], for which the EC50 in the test on A2780 cells and in the test on PC-3 cells was under 5 µM each time. In addition, the IC50 (in test [1]; at PDK1 kinase) was under 5 µM in each case.
With `CC(C)NS(=O)(=O)c1ccc(Nc2ncc3cccc(OC4CCNCC4)c3n2)cc1` [Compound 11, N-Isopropyl-4-[8-(piperidin-4-yloxy)-quinazolin-2-ylamino]-benzenesulfonamide], the EC50 in the test on A2780 cells and in the test with PC-3 cells was under 5 µM in each case. For the same compound, the IC50 (in test [1]; on PDK1 kinase) was under 5 µM throughout.
Take `COCCNS(=O)(=O)c1ccc(Nc2ncc3cccc(OC4CCNCC4)c3n2)cc1` [Compound 12, N-(2-Methoxy-ethyl)-4-[8-(piperidin-4-yloxy)-quinazolin-2-ylamino]-benzenesulfonamide]: the EC50 in the test on A2780 cells and with PC-3 cells was under 5 µM each time. The IC50 (in test [1]; at PDK1 kinase) was under 5 µM each time.
For the compound `O=S(=O)(NC1CC1)c1ccc(Nc2ncc3cccc(OC4CCNCC4)c3n2)cc1` [Compound 13, N-Cyclopropyl-4-[8-(piperidin-4-yloxy)-quinazolin-2-ylamino]-benzenesulfonamide], the EC50 with A2780 cells and with PC-3 cells was under 5 µM in each case. Further, the half-inhibitory concentration (IC50) (in test [1]; at PDK1 kinase) was under 5 µM in each case.
With `O=S(=O)(NCCN1CCCC1)c1ccc(Nc2ncc3cccc(OC4CCNCC4)c3n2)cc1` [Compound 14, 4-[8-(Piperidin-4-yl-oxy)-quinazolin-2-ylamino]-N-(2-pyrrolidin-1-yl-ethyl)-benzenesulfonamide], the EC50 in the test with A2780 cells and in the test with PC-3 cells was under 5 µM in each case. Also, the figures for the IC50 (in test [1]; at PDK1 kinase) were 5 to 10 µM and under 5 µM, respectively.
On to `NS(=O)(=O)c1ccc(Nc2ncc3cccc(OC4CCNCC4)c3n2)cc1` [Compound 31, 4-[8-(Piperidin-4-yloxy)-quinazolin-2-ylamino]-benzenesulfonamide], for which the EC50 in the test with A2780 cells and in the test on PC-3 cells was under 5 µM throughout. The IC50 (in test [1]; at PDK1 kinase) was under 5 µM each time.
In the case of `CC(C)N1CCC(Oc2cccc3cnc(Nc4ccc(S(N)(=O)=O)cc4)nc23)CC1` [Compound 36, 4-[8-(1-Isopropyl-piperidin-4-yloxy)-quinazolin-2-ylamino]-benzenesulfonamide], the EC50 in the test on A2780 cells and in the test on PC-3 cells was under 5 µM in each case. Further, the half-maximal inhibitory concentration (IC50) (in test [1]; at PDK1 kinase) was under 5 µM each time.
With `NS(=O)(=O)c1ccc(Nc2ncc3cccc(O[C@@H]4CN5CCC4CC5)c3n2)cc1` [Compound 40, 4-[8-((S)-3-quinuclidinyloxy)-quinazolin-2-ylamino]-benzenesulfonamide], the EC50 with A2780 cells and in the test on PC-3 cells was under 5 µM throughout. Moreover, the IC50 (in test [1]; on PDK1 kinase) was under 5 µM in each case.
As for `CN1C2CCC1CC(Oc1cccc3cnc(Nc4ccc(S(N)(=O)=O)cc4)nc13)C2` (centres unmarked) [Compound 41, 4-[8-(8-Methyl-8-aza-bicyclo[3.2.1]oct-3-yloxy)-quinazolin-2-ylamino]-benzenesulfonamide], the EC50 in the test on A2780 cells and in the test with PC-3 cells was under 5 µM in each case. Further, the IC50 (in test [1]; on PDK1 kinase) was under 5 µM each time.
In the case of `CC(C)N1CCC(Oc2ccc3cnc(Nc4ccc(S(N)(=O)=O)cc4)nc3c2)CC1` [Compound 42, 4-[7-(l-Isopropyl-piperidin-4-yloxy)-quinazolin-2-ylamino]-benzenesulfonamide], the EC50 with A2780 cells and with PC-3 cells was under 5 µM in each case. The 50% inhibitory concentration (IC50) (in test [1]; at PDK1 kinase) was under 5 µM each time.
For the compound `CNC(=O)c1ccc(Nc2ncc3cccc(OC4CCN(C(C)C)CC4)c3n2)cc1` [Compound 43, 4-[8-(1-Isopropyl-piperidin-4-yloxy)-quinazolin-2-ylamino]-N-methyl-benzamide], the EC50 in the test with A2780 cells was under 5 µM. Also, the half-maximal inhibitory concentration (IC50) (in test [1]; on PDK1 kinase) was under 5 µM in each case.
In the case of `CC(C)NC(=O)c1ccc(Nc2ncc3cccc(OC4CCN(C(C)C)CC4)c3n2)cc1` [Compound 44, N-Isopropyl-4-[8-(1-isopropyl-piperidin-4-yloxy)-quinazolin-2-ylamino]-benzamide], the EC50 in the test on A2780 cells and with PC-3 cells was under 5 µM in each case. Also, the IC50 (in test [1]; at PDK1 kinase) was under 5 µM throughout.
As for `CCN1CCC(Oc2cccc3cnc(Nc4ccc(S(N)(=O)=O)cc4)nc23)CC1` [Compound 46, 4-[8-(1-Ethyl-piperidin-4-yloxy)-quinazolin-2-ylamino]-benzenesulfonamide], the EC50 in the test on A2780 cells was under 5 µM. Also, the half-inhibitory concentration (IC50) in test [1] is 5 to 10 µM; at PDK1 kinase, under 5 µM.
Consider `CC(C)Cn1cc(-c2ccc3cnc(Nc4ccc(S(N)(=O)=O)cc4)nc3c2OC2CCNCC2)cn1` [Compound 65], for which the EC50 with A2780 cells was under 5 µM. In addition, the IC50 in test [1] is 5 to 10 µM; at PDK1 kinase it was under 5 µM.
For `NS(=O)(=O)c1ccc(Nc2ncc3ccc(-c4cnccn4)c(OC4CCNCC4)c3n2)cc1` [Compound 66, 4-[8-(Piperidin-4-yloxy)-7-pyrazin-2-yl-quinazolin-2-ylamino]-benzenesulfonamide], the EC50 in the test with A2780 cells was under 5 µM. Also, the values for the half-inhibitory concentration (IC50) (in test [1]; at PDK1 kinase) were 5 to 10 µM and under 5 µM, respectively.
Turning to `NS(=O)(=O)c1ccc(Nc2ncc3ccc(-c4cccnc4)cc3n2)cc1` [Compound 133, 4-(7-Pyridin-3-yl-quinazolin-2-ylamino)-benzenesulfonamide], the EC50 with A2780 cells is under 5 µM. Also, the concentration for half-maximal inhibition (IC50) (in test [1]; at PDK1 kinase) was under 5 µM in each case.
As for `COc1cncc(-c2ccc3cnc(Nc4ccc(S(N)(=O)=O)cc4)nc3c2)c1` [Compound 138, 4-[7-(5-Methoxy-pyridin-3-yl)-quinazolin-2-ylamino]-benzenesulfonamide], the EC50 with A2780 cells was under 5 µM. Moreover, the IC50 is 5 to 10 µM in test [1] and under 5 µM at PDK1 kinase.
